# Laboratory results from US7279325B2, “Method for identifying antagonist compounds of the estrogen-related receptor 3 (ERR3) by using the x-ray structural coordinates of the ligand binding domain” (priority 2002, dated 2007).
# Entries after “also recorded” stand apart in the source; their conditions may differ.
# Key:
# [1] = target: T1, ERR3 LBD/GST-SRC-1 RID complex (Homo sapiens, UniProt P62508); assay: In vitro protein-protein interaction assay, wt ERR3 LBD with SRC-1 RID (native gels); assay type: biochemical; conditions: 10^−4M ligand
# T1 construct: wt or mutant ERR3 LBDs (residues 229 to 458, human and murine receptor are identical); made in house; host or cells: E. coli BL21(DE3)
# T1 sequence (P62508 229-458): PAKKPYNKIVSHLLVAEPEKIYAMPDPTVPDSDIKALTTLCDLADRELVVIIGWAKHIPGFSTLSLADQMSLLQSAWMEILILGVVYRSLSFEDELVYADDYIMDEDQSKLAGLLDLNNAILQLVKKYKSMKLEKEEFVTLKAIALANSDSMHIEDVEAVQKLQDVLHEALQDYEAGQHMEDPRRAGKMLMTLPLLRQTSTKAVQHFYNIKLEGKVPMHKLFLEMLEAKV
# Method: The His-tagged wt or mutant ERR3 LBDs, the GST-tagged SRC-1 RID, and GST were expressed in E. coli BL21(DE3) and partially purified by affinity chromatography using TALON (Clontech) or Glutathione Sepharose 4B (Pharmacia), respectively. […] After purification the proteins were dialyzed in assay buffer (20 mM Tris.HCl pH 8.0, 200 mM NaCl), and concentrated. For the protein-protein interaction assays […] (about 70 pmol) of His-tagged wt or mutant ERR3 LBD were mixed with […] (about 100 pmol) of GST-tagged SRC-1 RID or […] of GST and incubated on ice for 10 mins. […] Protein complexes were resolved on native polyacrylamide gradient gels (8%-25%) using the Phast System (Pharmacia).
# In vitro interaction assays with the RID (amino acids 617-764) of the coactivator SRC-1 has first been performed. Hexahistidine (His)-tagged ERR3, LBD and GST-tagged SRC-1 RID were partially purified by affinity chromatography, the proteins were mixed, and complex formation was monitored on native polyacrylamide gels. […] Complexes were separated on native polyacrylamide gradient gels.
# ERR2 = target: T2, ERR2 (Homo sapiens, UniProt O95718); conditions: Coward et al. (2001); cited from earlier work
# T2 sequence (O95718 1-433): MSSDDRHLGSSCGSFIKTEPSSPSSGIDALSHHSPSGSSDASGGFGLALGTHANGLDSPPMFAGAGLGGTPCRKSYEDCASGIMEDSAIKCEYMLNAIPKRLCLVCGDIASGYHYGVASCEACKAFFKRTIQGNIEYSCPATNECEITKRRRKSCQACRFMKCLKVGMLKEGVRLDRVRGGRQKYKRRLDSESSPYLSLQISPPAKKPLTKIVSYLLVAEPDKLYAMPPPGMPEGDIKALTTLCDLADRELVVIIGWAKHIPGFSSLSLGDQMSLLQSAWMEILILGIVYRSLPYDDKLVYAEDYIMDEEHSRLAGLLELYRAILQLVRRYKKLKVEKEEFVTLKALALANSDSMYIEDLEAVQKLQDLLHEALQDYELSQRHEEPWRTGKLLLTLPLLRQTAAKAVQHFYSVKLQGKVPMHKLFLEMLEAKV
# ERR3 = target: T3, ERR3 (Homo sapiens, UniProt P62508); conditions: Coward et al. (2001); cited from earlier work
# T3 sequence (P62508 1-458): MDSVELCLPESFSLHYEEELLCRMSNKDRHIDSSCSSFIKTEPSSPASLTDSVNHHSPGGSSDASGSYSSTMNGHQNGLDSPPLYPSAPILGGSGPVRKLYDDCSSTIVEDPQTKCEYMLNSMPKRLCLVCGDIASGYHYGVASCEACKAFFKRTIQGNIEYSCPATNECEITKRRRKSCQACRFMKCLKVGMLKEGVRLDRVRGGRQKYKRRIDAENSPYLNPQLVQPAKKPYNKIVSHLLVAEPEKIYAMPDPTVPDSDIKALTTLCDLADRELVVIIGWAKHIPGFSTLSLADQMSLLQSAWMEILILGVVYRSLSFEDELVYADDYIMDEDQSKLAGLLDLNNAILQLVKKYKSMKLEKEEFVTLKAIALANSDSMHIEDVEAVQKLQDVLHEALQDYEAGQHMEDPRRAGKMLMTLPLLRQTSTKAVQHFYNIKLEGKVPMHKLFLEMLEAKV
# [2] = system: Gal4-ERR3 mutants (A272F, A272L, F435L, L345I-F435L-F450L); assay: Transient transfection luciferase reporter assay, Gal4-ERR3 mutants in COS-1 cells; assay type: cell-based, human; conditions: 10^−6M 4-OHT
# Method: FIG. 6: represents the transcriptional activities of wild-type and mutant ERR3 fusion proteins in transient transfection assays, wherein (A) COS-1 cells were transfected in 24-well plates with 250 ng per well of Gal4(5×)-TATA-LUC reporter and 50 ng of wt or mutant pCMX-Gal4-ERR3 expression plasmid. […] (B) Experiments were performed as described in (A) using 250 ng per well of Gal4(3×)-TK-LUC reporter plasmid and 50 ng of wt or mutant Gal4-ERR3 expression plasmid. […] FIGS. A to C represent an average of three independent experiments. The activity of the Gal4 DBD control was set to one.
# COS-1 and BHK cells were cultured in DMEM supplemented with 5% FCS, penicillin, streptomycin, and glutamine. Neuro2A cells were cultured in EMEM supplemented with 10% FCS, penicillin, streptomycin, glutamine, and non-essential amino acids. Transient transfection assays were carried out in 24-well plates (0.5×10^5 cells per well for COS-1 and Neuro2A cells, 0.25×10^5 cells per well for BHK cells) using the standard calcium phosphate coprecipitation technique as described in Greiner et al. (Greiner et al., 1996). Cells were transfected with 250 ng of Gal4(5×)-TATA-LUC, Gal4(3×)-TK-LUC, or ERE(2×)-TK-LUC reporter plasmid and 50 ng per well of pCMX-Gal4-ERR3 or pCMX-ERR3 expression plasmid. The empty plasmids pCMX-Gal4 and pCMX served as control. […]
substance,measurement,setting,value
4-hydroxytamoxifen [4-OHT],conformational change of the ERR3 LBD (migration on native gels),[1]; native gels,retarded
same,effect on the complex between the wt ERR3 LBD and GST-SRC-1 RID,[1]; native polyacrylamide gradient gels,specifically disrupted
same,binding to ERR2,ERR2,binds
same,transactivation / transcriptional activity mediated by ERR3,ERR3,repressed; also recorded: selectively block
same,transcriptional activity of Gal4-ERR3(F435L) and Gal4-ERR3(L345I-F435L-F450L),[2],antagonizes
